Test results as given in patent US7544803B2, “Vanilloid receptor ligands and their use in treatments” (Amgen Inc., priority 2004, dated 2009).

| melting point [°C] | SMILES |
| --- | --- |
| 229.7 | O=C(Nc1ccc2cccnc2c1)c1cc2ccc(C(F)(F)F)cc2s1 |
| 296 | O=C(Nc1ccc2cccnc2c1)c1cc2ncc(C(F)(F)F)cc2s1 [Example 6, 6-Trifluoromethyl-thieno[3,2-b]pyridine-2-carboxylic acid quinolin-7-ylamide] |
| 239.5 to 241.5 | O=C(Nc1ccc2cccnc2c1)c1ccc2cc(Br)ccc2c1 [Example 32, 6-Bromo-naphthalene-2-carboxylic acid quinolin-7-ylamide] |
| 156 to 157 | O=C(Nc1ccc2cccnc2c1)c1ccc2cc(Br)ccc2n1 [Example 36, 6-Bromo-quinoline-2-carboxylic acid quinolin-7-ylamide] |
